Laboratory results reported in patent US7897602B2, “Indolinone compounds as kinase inhibitors” (Development Center for Biotechnology, priority 2009, dated 2011).

What was measured:
Assay type in all cases: biochemical
Aurora A kinase = molecular target: T1, Aurora A kinase (Homo sapiens, UniProt O14965); test: Aurora A kinase assay ([γ-33P]ATP, CHOCKtide substrate); conditions: for inhibition at 1 µM: 1.0 μM test compound
T1 construct: purchased Upstate
T1 sequence (O14965 1-403): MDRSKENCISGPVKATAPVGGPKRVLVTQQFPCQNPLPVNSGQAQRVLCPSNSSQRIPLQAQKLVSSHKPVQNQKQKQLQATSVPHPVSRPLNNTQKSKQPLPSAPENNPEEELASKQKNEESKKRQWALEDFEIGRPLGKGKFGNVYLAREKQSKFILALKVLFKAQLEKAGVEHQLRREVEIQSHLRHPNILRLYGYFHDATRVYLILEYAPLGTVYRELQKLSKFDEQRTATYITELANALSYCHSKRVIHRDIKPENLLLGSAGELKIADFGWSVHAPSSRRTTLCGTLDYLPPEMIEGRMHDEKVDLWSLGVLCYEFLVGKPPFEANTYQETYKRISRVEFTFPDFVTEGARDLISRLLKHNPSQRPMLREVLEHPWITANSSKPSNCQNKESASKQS
Experimental: (§1) Inhibition of Aurora Kinase by the compounds disclosed herein was determined by incubating Aurora kinase, substrate, and a test compound together for a period of time followed by quantifying the resultant phosphorylated product. Specifically, in a well of a 96-well round bottom plate, 25 μL of a reaction mixture containing (1) a test compound disclosed herein (diluted from 9 μM to the desired final concentration), [γ-33P]ATP/ATP mix (10 μM), CHOCKtide (1 μg, Genesis Biotech Inc.), and Aurora-A (1 ng, purchased from Upstate); or (2) a test compound disclosed herein (diluted from 9 μM to the desired final concentration), [γ-33P]ATP/ATP mix (40 μM), CHOCKtide (1 μg, Genesis Biotech Inc.), and Aurora-B (2.5 ng, purchased from Cell signaling); was prepared and incubated at 33° C. for 30 minutes. The reaction was then stopped by adding 5 μL of 3% phosphoric acid. The resultant solution (30 μL) was later harvested by a UniFilter Plate GF/B (PerkinElmer) followed by adding 30 μL of the scintillation cocktail (MicroScint 20, PerkinElmer) to the well. The radioactivity retained on the filter membrane was measured by a luminescence counter (PerkinElmer). IC50 value is defined as the concentration of the test compound which achieves a half-maximal inhibition of the kinase activity.

Aurora B kinase = molecular target: T2, Aurora B kinase (Homo sapiens, UniProt Q96GD4); test: Aurora B kinase assay ([γ-33P]ATP, CHOCKtide substrate); conditions: for inhibition at 1 µM: 1.0 μM test compound
T2 construct: purchased Cell signaling
T2 sequence (Q96GD4 whole entry): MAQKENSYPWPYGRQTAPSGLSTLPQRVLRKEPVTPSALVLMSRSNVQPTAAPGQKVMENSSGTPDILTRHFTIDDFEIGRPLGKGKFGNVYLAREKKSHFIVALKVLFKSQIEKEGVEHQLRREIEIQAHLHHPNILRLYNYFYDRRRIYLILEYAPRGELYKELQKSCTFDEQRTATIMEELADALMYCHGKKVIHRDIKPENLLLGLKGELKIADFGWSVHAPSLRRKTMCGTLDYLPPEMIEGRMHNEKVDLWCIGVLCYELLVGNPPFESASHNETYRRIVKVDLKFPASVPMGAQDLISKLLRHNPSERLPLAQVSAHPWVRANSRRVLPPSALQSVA
Experimental: as §1

c-Met kinase = molecular target: T3, c-Met kinase (Homo sapiens, UniProt P08581); test: c-Met kinase assay (33P incorporation into Poly(Glu-Tyr)); conditions: 500 nM test compound
T3 construct: recombinant N-terminal 6×His-tagged c-Met kinase domain construct expressed from baculovirus; 6xHis (N); made in house
T3 sequence (P08581 1078-1345 limits assumed): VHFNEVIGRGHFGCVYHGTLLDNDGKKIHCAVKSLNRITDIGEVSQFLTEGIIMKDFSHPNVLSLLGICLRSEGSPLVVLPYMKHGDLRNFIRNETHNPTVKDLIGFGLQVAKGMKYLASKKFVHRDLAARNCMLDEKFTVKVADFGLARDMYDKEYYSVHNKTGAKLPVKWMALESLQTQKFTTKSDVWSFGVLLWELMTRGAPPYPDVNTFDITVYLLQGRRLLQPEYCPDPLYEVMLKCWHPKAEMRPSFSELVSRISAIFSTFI
Experimental: Inhibition of c-Met kinase activity by compounds disclosed herein was quantified by measuring the amount of [^33P] incorporated into the substrate in the presence of a test compound. Briefly, a reaction mixture of 25 μL final volume containing 5 ng of c-Met kinase (obtained by purifying recombinant N-terminal 6×His-tagged c-Met kinase domain construct expressed from baculovirus), 1 μg of the substrate (Poly (Glu-Tyr, 4:1, Sigma)), kinase reaction buffer (20 mM MOPS pH 7.0, 1 mM EDTA, 5% glycerol, 0.01% Brij-35, 0.1% β-mercaptoethanol, 1 mg/mL BSA, 100 μM ATP, 0.1 μCi per well [^33P]-γ-ATP (2,500-3,000 Ci/mmol)), and a test compound (500 nM, diluted with 4% DMSO) or DMSO (as the control) was incubated at 30° C. for 30 minutes. The reaction was stopped by adding 5 μL of 3% phosphoric acid solution. The resultant reaction solution was then harvested onto a filter plate (UniFilter-96 GF/B, PerkinElmer), washed 20 times for 5 min with d.d. H2O, and followed by the addition of 30 μL of MicroScint™-20 Cocktail (PerkinElmer). The plate was then sealed and counted using a TopCount scintillation detector (PerkinElmer). The percentage of inhibition rate of the test compound was calculated by dividing the retained radioactivity of the test sample with the retained radioactivity of the control sample and shown in Table 3.

| Structure (SMILES) | IC50 (Aurora A kinase) | inhibition at 1 µM (Aurora A kinase) | IC50 (Aurora B kinase) | inhibition at 1 µM (Aurora B kinase) | inhibition at 0.5 µM (c-Met kinase) |
| --- | --- | --- | --- | --- | --- |
| COc1cccc(S(=O)(=O)Nc2ccc3c(c2)/C(=C/c2[nH]c4c(c2CCC(=O)O)C(=O)CCC4)C(=O)N3)c1 [DCB-70196, (Z)-3-(2-((5-(3-methoxyphenylsulfonamido)-2-oxoindolin-3-ylidene)methyl)-4-oxo-4,5,6,7-tetrahydro-1H-indol-3-yl)propanoic acid] | 61.4 nM | 91.8% | 673 nM | 55.8% | 13.8% |
| CCOC(=O)CCc1c(/C=C2\C(=O)Nc3ccc(NS(=O)(=O)Cc4ccccc4)cc32)[nH]c2c1C(=O)CCC2 [DCB-70197, (Z)-ethyl 3-(4-oxo-2-((2-oxo-5-(phenylmethylsulfonamido)indolin-3-ylidene)methyl)-4,5,6,7-tetrahydro-1H-indol-3-yl)propanoate] |  | 48.7% |  | 39.9% | 21.1% |
| O=C(O)CCc1c(/C=C2\C(=O)Nc3ccc(NS(=O)(=O)Cc4ccccc4)cc32)[nH]c2c1C(=O)CCC2 [DCB-70198, (Z)-3-(4-oxo-2-((2-oxo-5-(phenylmethylsulfonamido)indolin-3-ylidene)methyl)-4,5,6,7-tetrahydro-1H-indol-3-yl)propanoic acid] | 62.8 nM | 96.1% | 402 nM | 69.8% | 20.2% |
| CC(=O)c1c(C)[nH]c(/C=C2\C(=O)Nc3ccc(NS(=O)(=O)c4ccccc4)cc32)c1CCC(=O)O [DCB-70200, (Z)-3-(4-acetyl-5-methyl-2-((2-oxo-5-(phenylsulfonamido)indolin-3-ylidene)methyl)-1H-pyrrol-3-yl)propanoic acid] | 60.6 nM | 93.1% | 870 nM | 57.3% | 15.2% |
| CCOC(=O)CCc1c(/C=C2\C(=O)Nc3ccc(NS(=O)(=O)c4ccccc4)cc32)[nH]c(C)c1C(C)=O [DCB-70201, (Z)-ethyl 3-(4-acetyl-5-methyl-2-((2-oxo-5-(phenylsulfonamido)indolin-3-ylidene)methyl)-1H-pyrrol-3-yl)propanoate] |  | 48.2% |  | 36.6% | 18.8% |
| CC(=O)c1c(C)[nH]c(/C=C2\C(=O)Nc3ccc(S(=O)(=O)Cc4c(Cl)cccc4Cl)cc32)c1CCC(=O)O [DCB-70202, (Z)-3-(4-acetyl-2-((5-(2,6-dichlorobenzylsulfonyl)-2-oxoindolin-3-ylidene)methyl)-5-methyl-1H-pyrrol-3-yl)propanoic acid] |  | 40.2% |  | 7.3% | 85.2% |
| CC(=O)c1c(C)[nH]c(/C=C2\C(=O)Nc3ccc(S(=O)(=O)Cc4c(Cl)cccc4Cl)cc32)c1CCC(=O)N1CCN(C)CC1 [DCB-70205, (Z)-3-((4-acetyl-5-methyl-3-(3-(4-methylpiperazin-1-yl)-3-oxopropyl)-1H-pyrrol-2-yl)methylene)-5-(2,6-dichlorobenzylsulfonyl)indolin-2-one] |  | 11.3% |  | 2.4% | 97% |
| CC(=O)c1c(C)[nH]c(/C=C2\C(=O)Nc3ccc(S(=O)(=O)N4CCc5ccccc54)cc32)c1CCC(=O)N1CCN(C)CC1 [DCB-70206, (Z)-3-((4-acetyl-5-methyl-3-(3-(4-methylpiperazin-1-yl)-3-oxopropyl)-1H-pyrrol-2-yl)methylene)-5-(indolin-1-ylsulfonyl)indolin-2-one] |  | 37.4% |  | 21.1% | 77.4% |
| CC(=O)c1c(C)[nH]c(/C=C2\C(=O)Nc3ccc(F)cc32)c1CCC(=O)N1CCN(C)CC1 [DCB-70207, (Z)-3-((4-acetyl-5-methyl-3-(3-(4-methylpiperazin-1-yl)-3-oxopropyl)-1H-pyrrol-2-yl)methylene)-5-fluoroindolin-2-one] |  | 10.3% |  | 6.8% | 21.1% |
| CCOC(=O)CCc1c(/C=C2\C(=O)Nc3ccc(S(=O)(=O)Cc4c(Cl)cccc4Cl)cc32)[nH]c2c1C(=O)CCC2 [DCB-70209, (Z)-ethyl 3-(2-((5-(2,6-dichlorobenzylsulfonyl)-2-oxoindolin-3-ylidene)methyl)-4-oxo-4,5,6,7-tetrahydro-1H-indol-3-yl)propanoate] |  | 22.7% |  | 16.3% | 92.1% |
| CCOC(=O)CCc1c(/C=C2\C(=O)Nc3ccc(S(=O)(=O)N4CCc5ccccc54)cc32)[nH]c2c1C(=O)CCC2 [DCB-70210, (Z)-ethyl 3-(2-((5-(indolin-1-ylsulfonyl)-2-oxoindolin-3-ylidene)methyl)-4-oxo-4,5,6,7-tetrahydro-1H-indol-3-yl)propanoate] | 100 nM | 74.6% |  | 45.5% | 75.3% |
| CCN(CC)CCNC(=O)CCc1c(/C=C2\C(=O)Nc3ccc(S(=O)(=O)Cc4c(Cl)cccc4Cl)cc32)[nH]c(C)c1C(C)=O [DCB-70212, (Z)-3-(4-acetyl-2-((5-(2,6-dichlorobenzylsulfonyl)-2-oxoindolin-3-ylidene)methyl)-5-methyl-1H-pyrrol-3-yl)-N-(2-(diethylamino)ethyl)propanamide] |  | 3.5% |  | 6.3% | 95.2% |
| CCN(CC)CCNC(=O)CCc1c(/C=C2\C(=O)Nc3ccc(F)cc32)[nH]c(C)c1C(C)=O [DCB-70213, (Z)-3-(4-acetyl-2-((5-fluoro-2-oxoindolin-3-ylidene)methyl)-5-methyl-1H-pyrrol-3-yl)-N-(2-(diethylamino)ethyl)propanamide] |  | 1% |  | 16.4% | 15.5% |
| CCN(CC)CCNC(=O)CCc1c(/C=C2\C(=O)Nc3ccc(S(=O)(=O)N4CCc5ccccc54)cc32)[nH]c(C)c1C(C)=O [DCB-70214, (Z)-3-(4-acetyl-2-((5-(indolin-1-ylsulfonyl)-2-oxoindolin-3-ylidene)methyl)-5-methyl-1H-pyrrol-3-yl)-N-(2-(diethylamino)ethyl)propanamide] |  | 15.4% |  | 14.8% | 56.3% |
| CN1CCN(C(=O)CCc2c(/C=C3\C(=O)Nc4ccc(NS(=O)(=O)c5ccccc5)cc43)[nH]c3c2C(=O)CCC3)CC1 [DCB-70218, (Z)-N-(3-((3-(3-(4-methylpiperazin-1-yl)-3-oxopropyl)-4-oxo-4,5,6,7-tetrahydro-1H-indol-2-yl)methylene)-2-oxoindolin-5-yl)benzenesulfonamide] | 823 nM | 62% |  | 54.2% | 9.2% |
| CC(=O)c1c(C)[nH]c(/C=C2\C(=O)Nc3ccc(NS(=O)(=O)c4ccccc4)cc32)c1CCC(=O)N1CCN(C)CC1 [DCB-70219, (Z)-N-(3-((4-acetyl-5-methyl-3-(3-(4-methylpiperazin-1-yl)-3-oxopropyl)-1H-pyrrol-2-yl)methylene)-2-oxoindolin-5-yl)benzenesulfonamide] |  | 25.7% |  | 14.8% | 17.7% |
| CCN(CC)CCCc1c(/C=C2\C(=O)Nc3ccc(S(=O)(=O)Cc4c(Cl)cccc4Cl)cc32)[nH]c2c1C(=O)CCC2 [DCB-70222, (Z)-5-(2,6-dichlorobenzylsulfonyl)-3-((3-(3-(diethylamino)propyl)-4-oxo-4,5,6,7-tetrahydro-1H-indol-2-yl)methylene)indolin-2-one] |  | 95.7% |  | 83.2% | 95.6% |
